Experimental data published in article PMC11054487, “Species-Specific Unbound Fraction Differences in Highly Bound PFAS: A Comparative Study across Human, Rat, and Mouse Plasma and Albumin” (Toxics, 2024).

Experiments:
[1] = test system: mouse (CD-1) plasma; assay: Presaturation equilibrium dialysis, fraction unbound in CD-1 mouse plasma; format: in vitro ADME; design: fraction unbound at 18 h: dose or concentration left out as unconfirmed; conditions: 5 μM PFAS, 18 h, 37 °C, value (CV)
Description: (§1) Each PFAS:matrix combination was assessed in quadruplicate.
(§2) The injection volume for each sample was 5 µL.

[2] = molecular target: T1, human serum albumin (HSA) (Homo sapiens, UniProt P02768); assay: Presaturation equilibrium dialysis, fraction unbound in human serum albumin solution; format: in vitro ADME; conditions: 4% human serum albumin in PBS, value (CV); for Fraction Unbound (fu) and Coefficient of Variance (CV), HSA: 5 μM PFAS
T1 construct: purchased Sigma-Aldrich
T1 sequence (P02768 25-609): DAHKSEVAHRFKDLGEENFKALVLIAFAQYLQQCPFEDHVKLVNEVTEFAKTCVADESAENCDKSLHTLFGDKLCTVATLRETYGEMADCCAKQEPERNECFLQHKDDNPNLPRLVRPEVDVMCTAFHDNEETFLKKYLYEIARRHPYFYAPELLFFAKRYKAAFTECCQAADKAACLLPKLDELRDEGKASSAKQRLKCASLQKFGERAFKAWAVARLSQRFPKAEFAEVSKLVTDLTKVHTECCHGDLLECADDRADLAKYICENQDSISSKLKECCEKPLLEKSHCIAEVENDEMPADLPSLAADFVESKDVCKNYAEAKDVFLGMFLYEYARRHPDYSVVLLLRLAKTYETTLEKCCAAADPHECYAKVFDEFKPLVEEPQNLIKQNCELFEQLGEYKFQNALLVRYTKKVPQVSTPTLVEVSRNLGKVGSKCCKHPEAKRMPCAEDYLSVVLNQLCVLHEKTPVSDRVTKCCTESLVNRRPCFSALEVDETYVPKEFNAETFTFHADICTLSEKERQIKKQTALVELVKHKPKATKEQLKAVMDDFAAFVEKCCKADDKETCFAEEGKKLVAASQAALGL
Description: as §1, §2

[3] = test system: rat (Wistar-Han) plasma; assay: Presaturation equilibrium dialysis, fraction unbound in rat plasma; format: in vitro ADME; design: fraction unbound at 18 h: dose or concentration left out as unconfirmed; conditions: 5 μM PFAS, 18 h, 37 °C, value (CV)
Description: as §1, §2

[4] = humans; cited from earlier work
[5] = molecular target: mouse serum albumin (MSA) (Mus musculus, UniProt P07724); assay: Presaturation equilibrium dialysis, fraction unbound in mouse serum albumin solution; conditions: for fraction unbound at 18 h, 5 µM: mouse
Sequence of mouse serum albumin (MSA) (P07724 25-608): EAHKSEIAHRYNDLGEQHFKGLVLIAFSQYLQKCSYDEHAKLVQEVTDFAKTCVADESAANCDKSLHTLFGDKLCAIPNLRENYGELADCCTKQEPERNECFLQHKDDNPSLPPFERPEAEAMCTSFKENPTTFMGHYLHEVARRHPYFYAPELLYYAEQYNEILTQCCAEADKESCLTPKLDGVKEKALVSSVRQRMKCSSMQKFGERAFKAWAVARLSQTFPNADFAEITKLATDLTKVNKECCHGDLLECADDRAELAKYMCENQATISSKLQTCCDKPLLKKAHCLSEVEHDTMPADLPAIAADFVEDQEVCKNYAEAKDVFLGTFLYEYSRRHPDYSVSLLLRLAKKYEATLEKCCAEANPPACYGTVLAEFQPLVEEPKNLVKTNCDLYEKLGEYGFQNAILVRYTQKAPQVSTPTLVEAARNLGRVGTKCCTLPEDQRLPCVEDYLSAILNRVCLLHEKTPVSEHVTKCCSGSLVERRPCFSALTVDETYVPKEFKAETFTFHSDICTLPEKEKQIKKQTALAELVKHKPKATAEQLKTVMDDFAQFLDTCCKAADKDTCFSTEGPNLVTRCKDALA
Description: (§3) The equilibrium dialysis device (EQD) HTD96 (Gales Ferry, CT, USA) was assembled according to manufacturer instructions. DPBS buffer solutions were prepared by adding PFAS with a concentration of either approximately five-fold of the estimated fu values based on initial available data or assumed to be 0.001 if no data was available. The dialysis apparatus and membranes assembled were pre-saturated (250 µL) three times in total with PFAS spiked DPBS buffer solution; twice for 1 h followed by a final 18-h pre-saturation. This same solution was used on the receiver side of the EQD. […] This 4% albumin was used in the albumin binding study to recapitulate plasma concentration, as human albumin concentration in plasma is 3.5–4.5 g/dL (530–680 µM). The matrix was diluted five-fold using DPBS for PFAS that had preliminary fu values lower than 0.01. Dimethylsulfoxide (DMSO) stock solutions of test PFAS were prepared at 500 μM and added to species-specific plasma or 4% albumin to a final concentration of 5 μM with 1% DMSO. Next, 150 μL of PFAS spiked DPBS was added to the receiver side of the membrane and 150 μL of compound spiked matrix was added to the donor side. […] Each PFAS:matrix combination was assessed in quadruplicate. For sample collection, 15 μL of buffer and 45 μL of matrix were sampled from the dialysis device into a 96-deep well plate and matrix-matched with either blank buffer or matrix. The samples were then quenched with 200 μL of cold acetonitrile containing internal standard (tolbutamide 30 nM and carbamazepine 12 nM) to precipitate proteins. Next, the plates were sealed and placed on a vortex mixer for 1 min, and then centrifuged (Beckman Coulter, Fullerton, CA, USA) at 3000 rpm for 5 min at room temperature. Lastly, the supernatant was transferred to a new 96-well plate, fully dried down under nitrogen gas, reconstituted with 200 µL of 50/50 (v/v) HPLC grade water/acetonitrile, and vortexed for 1 min prior to LC-MS/MS analysis.
(§4) LC-MS/MS analyses were performed on a SCIEX Triple Quad 5500 mass spectrometer (SCIEX, Concord, ON, Canada) equipped with Turbo Ion Spray interface. […] All instruments were controlled and synchronized by SCIEX Analyst software (version 1.6.3). Mobile phases compositions were 0.1% formic acid in water (mobile phase A) and 0.1% formic acid in acetonitrile (mobile phase B). […] The column was equilibrated at 5% B for 0.5 min before injecting samples. The total run time for each injection was 6 min. The chromatographic separation was conducted on a Phenomenex Kinetex C18 100Å 30 × 2.1 mm column (Torrance, CA, USA) with a flow rate of 0.5 mL/min. The injection volume for each sample was 5 µL. Multiple-reaction-monitoring (MRM) mode using specific precursor/product ion transitions was used for quantification. Data processing was performed using SCIEX Analyst software (version 1.6.3).
(§5) The calculations for fu are shown in Equations (1) and (2), where D is the dilution factor and fu,d is the diluted fu shown below. All calculations are based on area ratios (analyte peak area/IS peak area), and MS responses used for calculations were all in linear ranges. […] (1) Diluted fud=Receiver Area Ratio/Donor Area Ratio (2) Undiluted fu=1/D/1/fu,d−1+1/D
(§6) Albumin concentrations for rodents have been reported in the literature as rat: 3.0 g/dL; CD-1 mice: 2.7 g/dL; C57BL/6 mice: 2.9 g/dL [53].

[6] = test system: mouse (C57BL/6) plasma; assay: Presaturation equilibrium dialysis, fraction unbound in C57BL/6 mouse plasma; format: in vitro ADME; design: fraction unbound at 18 h: dose or concentration left out as unconfirmed; conditions: 5 μM PFAS, 18 h, 37 °C, value (CV)
Description: as §1, §2

[7] = molecular target: rat serum albumin (RSA) (Rattus norvegicus, UniProt P02770); assay: Presaturation equilibrium dialysis, fraction unbound in rat serum albumin solution; conditions: for fraction unbound at 18 h, 5 µM: rat
Sequence of rat serum albumin (RSA) (P02770 25-608): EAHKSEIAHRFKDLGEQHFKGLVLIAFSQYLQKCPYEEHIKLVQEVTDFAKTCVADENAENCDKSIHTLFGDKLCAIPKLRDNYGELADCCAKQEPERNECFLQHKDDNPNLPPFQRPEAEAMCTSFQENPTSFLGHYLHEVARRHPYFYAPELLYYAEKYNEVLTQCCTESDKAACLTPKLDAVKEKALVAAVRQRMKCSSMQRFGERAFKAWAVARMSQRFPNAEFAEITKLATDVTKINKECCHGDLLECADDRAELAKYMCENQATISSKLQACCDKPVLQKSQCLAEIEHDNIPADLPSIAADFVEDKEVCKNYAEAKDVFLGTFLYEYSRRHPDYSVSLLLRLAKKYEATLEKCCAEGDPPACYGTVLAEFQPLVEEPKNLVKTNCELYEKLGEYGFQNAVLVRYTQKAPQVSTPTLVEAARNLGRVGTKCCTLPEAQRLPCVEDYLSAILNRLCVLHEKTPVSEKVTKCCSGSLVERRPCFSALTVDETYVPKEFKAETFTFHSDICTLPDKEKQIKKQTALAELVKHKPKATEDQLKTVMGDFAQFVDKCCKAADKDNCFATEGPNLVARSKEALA
Description: as §3, §4, §5, §6

[8] = Presaturation equilibrium dialysis, fraction unbound in CD-1 mouse plasma; format: in vitro ADME; design: fraction unbound at 18 h: dose or concentration left out as unconfirmed; conditions: 37 °C, value (CV), read-out: Fraction Unbound (fu) and Coefficient of Variance (CV), CD-1 Plasma
Description: as §1, §2

[9] = Presaturation equilibrium dialysis, fraction unbound in rat plasma; format: in vitro ADME; design: fraction unbound at 18 h: dose or concentration left out as unconfirmed; conditions: Wistar-Han rat plasma, 37 °C, value (CV), read-out: Fraction Unbound (fu) and Coefficient of Variance (CV), Rat Plasma
Description: as §1, §2

[10] = Presaturation equilibrium dialysis, fraction unbound in human plasma; format: in vitro ADME; design: fraction unbound at 18 h: dose or concentration left out as unconfirmed; conditions: human, 37 °C, value (CV), read-out: Fraction Unbound (fu) and Coefficient of Variance (CV), Human Plasma
Description: as §1, §2

[11] = Presaturation equilibrium dialysis, fraction unbound in C57BL/6 mouse plasma; format: in vitro ADME; design: fraction unbound at 18 h: dose or concentration left out as unconfirmed; conditions: 37 °C, value (CV), read-out: Fraction Unbound (fu) and Coefficient of Variance (CV), C57BL/6 Plasma
Description: as §1, §2

[12] = test system: human plasma; assay: Presaturation equilibrium dialysis, fraction unbound in human plasma; format: in vitro ADME; design: fraction unbound at 18 h: dose or concentration left out as unconfirmed; conditions: 5 μM PFAS, 18 h, 37 °C, value (CV)
Description: as §1, §2

[13] = 3% mouse serum albumin, value (%CV)
[14] = 4% mouse serum albumin in PBS, 5 μM PFAS, value (CV)
[15] = 3% rat serum albumin, value (%CV)
[16] = 4% rat serum albumin in PBS, 5 μM PFAS, value (CV)

| Compound | Fraction Unbound (fu) and Coefficient of Variance (CV), CD-1 Plasma [1] | Fraction Unbound (fu) and Coefficient of Variance (CV), HSA [2] | Fraction Unbound (fu) and Coefficient of Variance (CV), Rat Plasma [3] | half-lives [4] [days] | t1/2 [4] | Fraction unbound (fu) and %CV, MSA 3% [5, 13] | Fraction Unbound (fu) and Coefficient of Variance (CV), MSA [5, 14] | Fraction Unbound (fu) and Coefficient of Variance (CV), C57BL/6 Plasma [6] | Fraction unbound (fu) and %CV, RSA 3% [7, 15] | Fraction Unbound (fu) and Coefficient of Variance (CV), RSA [7, 16] | fraction unbound at 18 h [8] | fraction unbound at 18 h ([2]; 4% human serum albumin (HSA) solution, read-out: Fraction Unbound (fu) and Coefficient of Variance (CV), HSA) | fraction unbound at 18 h [9] | fraction unbound at 18 h, 5 µM ([5]; 4% mouse serum albumin (MSA) solution, Fraction Unbound (fu) and Coefficient of Variance (CV), MSA, 4% mouse serum albumin in PBS, 5 μM PFAS, value (CV)) | fraction unbound at 18 h, 5 µM ([5]; isolated protein, Fraction unbound (fu) and %CV, MSA 3%, 3% mouse serum albumin, value (%CV)) | fraction unbound at 18 h [10] | fraction unbound at 18 h [11] | fraction unbound at 18 h, 5 µM ([7]; 4% rat serum albumin (RSA) solution, Fraction Unbound (fu) and Coefficient of Variance (CV), RSA, 4% rat serum albumin in PBS, 5 μM PFAS, value (CV)) | fraction unbound at 18 h, 5 µM ([7]; isolated protein, Fraction unbound (fu) and %CV, RSA 3%, 3% rat serum albumin, value (%CV)) | Fraction Unbound (fu) and Coefficient of Variance (CV), Human Plasma [12] |
| --- | --- | --- | --- | --- | --- | --- | --- | --- | --- | --- | --- | --- | --- | --- | --- | --- | --- | --- | --- | --- |
| O=C(O)C(F)(F)C(F)(F)C(F)(F)F [PFBA, Perfluorobutanoic acid] | 0.757(6%) | 0.15(5%) | 0.37(24%) | 3 | 3.1 days | 0.206 (23%) | 0.24(22%) | 0.767(2%) | 0.18 (3%) | 0.216(3%) |  |  |  |  |  |  |  |  |  |  |
| NS(=O)(=O)C(F)(F)C(F)(F)C(F)(F)C(F)(F)C(F)(F)C(F)(F)C(F)(F)C(F)(F)F [PFOSA, perfluorooctanesulfonamide] |  |  |  |  |  |  |  |  |  |  | 0.00326 | 0.00152 | 0.00197 | 0.00127 | 0.00102 | 0.0019 | 0.0023 | 0.00118 | 0.000952 |  |
| O=S(=O)(O)CCC(F)(F)C(F)(F)C(F)(F)C(F)(F)C(F)(F)C(F)(F)F [6:2 FtS, 6:2 fluorotelomer sulfonate] | 0.0255(2%) | 0.00746(0%) | 0.0236(4%) |  |  | 0.0091 (9%) | 0.0113(9%) | 0.0253(2%) | 0.00892 (4%) | 0.0111(4%) |  |  |  |  |  |  |  |  |  | 0.0197(2%) |
| O=S(=O)(O)C(F)(F)C(F)(F)C(F)(F)C(F)(F)F [PFBS, perfluorobutanesulfonic acid] | 0.261(7%) | 0.056(5%) | 0.0542(3%) | 26 | 26 days | 0.0321 (11%) | 0.0396(11%) | 0.28(5%) | 0.0168 (8%) | 0.0208(8%) |  |  |  |  |  |  |  |  |  |  |
| O=S(=O)(O)C(F)(F)C(F)(F)C(F)(F)C(F)(F)C(F)(F)C(F)(F)C(F)(F)C(F)(F)F [PFOS, perfluorooctanesulfonic acid] |  | 0.000524(13%) | 0.00109(4%) |  | 3.3–5.4 years | 0.00102 (19%) | 0.00126(19%) | 0.00256(8%) | 0.000697 (25%) | 0.000852(25%) |  |  |  |  |  |  |  |  |  |  |
| O=C(O)C(F)(F)C(F)(F)C(F)(F)C(F)(F)F [PFPA, perfluoropentanoic acid] | 0.609(4%) | 0.0933(6%) | 0.18(2%) |  |  | 0.0809 (11%) | 0.0987(11%) | 0.577(5%) | 0.0769 (4%) | 0.0942(4%) |  |  |  |  |  |  |  |  |  | 0.0888(3%) |
| O=C(O)C(F)(F)C(F)(F)C(F)(F)C(F)(F)C(F)(F)C(F)(F)C(F)(F)C(F)(F)C(F)(F)C(F)(F)F [PFUDA, perfluoroundecanoic acid] | 0.000524(15%) | 0.000417(23%) | 0.000349(20%) |  |  | 0.000417 (19%) | 0.000513(19%) |  | 0.000147 (28%) | 0.000178(28%) |  |  |  |  |  |  |  |  |  | 0.000419(24%) |
| O=C(O)C(F)(F)C(F)(F)C(F)(F)C(F)(F)C(F)(F)F [PFHxA, perfluorohexanoic acid] | 0.169(5%) | 0.0336(7%) | 0.0358(7%) |  |  | 0.0266 (11%) | 0.0329(11%) | 0.182(7%) | 0.0212 (4%) | 0.0264(4%) |  |  |  |  |  |  |  |  |  | 0.038(6%) |
